Values quoted from earlier work, collected in PMC10783014, “Structure-based virtual screening and in vitro validation of inhibitors of cyclic dinucleotide phosphodiesterases ENPP1 and CdnP” (Microbiology Spectrum, 2023).

Tested on: CdnP
Conditions: cited from earlier work
For `CN1CC(=O)N2[C@H](c3ccc4c(c3)OCO4)c3[nH]c4ccccc4c3C[C@@H]2C1=O` [tadalafil], the CdnP inhibition is given as “demonstrated CdnP inhibition”. For `CCCc1nn(C)c2c(=O)[nH]c(-c3cc(S(=O)(=O)N4CCN(C)CC4)ccc3OCC)nc12` [sildenafil], the CdnP inhibition is given as “demonstrated CdnP inhibition”. In the case of `COc1ccc([C@]2(C#N)CC[C@@H](C(=O)O)CC2)cc1OC1CCCC1` [cilomilast], the CdnP inhibition is listed as “demonstrated CdnP inhibition”. In the case of `O=C1CCc2cc(OCCCCc3nnnn3C3CCCCC3)ccc2N1` [cilostazol], the CdnP inhibition is given as “demonstrated CdnP inhibition”.
